Laboratory results taken from US10881110B2, “Herbicidal compositions comprising isoxazolo[5,4-b]pyridines” (BASF SE, priority 2014, dated 2021).
Values joined by “and” are separate entries in the source; they are usually repeats but may differ in a detail not shown here. Equal values may be shown once. Read-outs that look alike come from different tables or passages of the source.

Assays:
Assay in all cases: greenhouse post-emergence herbicidal test
[1] = system: DIGSA; assay type: in vivo, Digitaria sanguinalis
Experimental: (§1) The culture containers used were plastic pots containing medium loamy sand with approximately 4.6% of humus and 69.9% sand as substrate. The seeds of the test plants were sown separately for each species.
(§2) For the post-emergence treatment, the test plants were grown to a plant height of from 1 to 15 cm, depending on the plant habit, and only then treated with the active compounds which had been suspended or emulsified in water. To this end, the test plants were either sown directly, and grown in the same containers, or they were first grown separately as seedlings and transplanted into the test containers a few days prior to treatment.
(§3) Depending on the species, the plants were kept at 10-25° C. and 20-35° C., respectively.
(§4) The test period extended over 1 to 3 weeks. During this time, the plants were tended and their response to the individual treatments was evaluated 20 days after treatment except mentioned otherwise.
(§5) Evaluation was carried out using a scale from 0 to 100. 100 means no emergence of the plants, or complete destruction of at least the above-ground parts, and 0 means no damage or normal course of growth.
(§6) The respective stated components A and B, and, if appropriate, C, were formulated as a 10% by weight strength emulsion concentrate and, with addition of the amount of solvent system, introduced into the spray liquor used for applying the active compound. In the examples, the solvent used was water.
(§7) In the examples below, using the method of S. R. Colby (1967) “Calculating synergistic and antagonistic responses of herbicide combinations”, Weeds 15, p. 22 ff., the value E, which is expected if the activity of the individual active compounds is only additive, was calculated. E=X+Y−(X·Y/100)

[2] = system: LOLMU; assay type: in vivo, Lolium multiflorum
Experimental: as §1, §2, §3, §4, §5, §6, §7

[3] = system: AMBEL; assay type: in vivo, Ambrosia artemisiifolia; set-up: key: rating on a scale from 0 to 100
Method in brief: (§8)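 Post-emergence greenhouse test: plants in loamy sand, sprayed at 1–15 cm height with aqueous spray liquor from 10% emulsion concentrates, kept at 10-25 °C or 20-35 °C by species. Damage scored 0–100 (100 = complete destruction), usually 20 days after treatment. Expected additive effect E from Colby: E=X+Y−(X·Y/100).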

[4] = system: ALOMY; assay type: in vivo, Alopecurus myosuroides; set-up: key to herbicidal activity against ALOMY found: rating on a scale from 0 to 100; conditions: post emergence
Method in brief: as §8

[5] = system: GERDI; assay type: in vivo, Geranium dissectum; conditions: Geranium dissectum, post-emergence, 480 h, post emergence, read-out: herbicidal activity against GERDI found
Method in brief: as §8

[6] = application rate a.i.: I.1 250 g/ha, B.193 15 g/ha, alone or as mixture (composition 1.193)
[7] = a.i. g/ha: I.1 62.5, B.67 62.5, 20 days after treatment
[8] = applied alone at 31.25 g/ha a.i.
[9] = single active, 15.625 g/ha a.i.

For `O=C(O)c1cc(C2CC2)nc2onc(C3CC3)c12` [I.1], the “herbicidal activity against DIGSA found” value ([1]; a.i. g/ha: I.1 31.25, B.76 225, 20 days after treatment) was 35%, the “herbicidal activity against DIGSA found” value ([1]; a.i. g/ha: I.1 62.5, B.76 225, 20 days after treatment) was 40% and the “herbicidal activity against DIGSA found” value ([1]; a.i. g/ha: I.1 62.5, B.80 250, 20 days after treatment) was 40%. The “herbicidal activity against DIGSA found” value [1, 6] was 35, the “herbicidal activity against LOLMU found” value ([2]; a.i. g/ha: I.1 7.8, B.67 125, 20 days after treatment) was 0% and the “herbicidal activity against LOLMU found” value ([2]; a.i. g/ha: I.1 15.6, B.67 125, 20 days after treatment) was 0%. The “herbicidal activity against LOLMU found” value ([2]; a.i. g/ha: I.1 31.25, B.67 125, 20 days after treatment) was 0%, the “herbicidal activity against LOLMU found” value [2, 7] was 40% and the “herbicidal activity against LOLMU found” value ([2]; a.i. g/ha: I.1 62.5, B.67 125, 20 days after treatment) was 20%. The “herbicidal activity against LOLMU found” value ([2]; a.i. g/ha: I.1 62.5, B.77 75, 20 days after treatment) was 20%, the “herbicidal activity against AMBEL found” value ([3]; 31.25 g/ha a.i.) was 85 and the “herbicidal activity against AMBEL found” value ([3]; I.1 alone 125 g/ha a.i.) was 65. For the same compound, the “herbicidal activity against AMBEL found” value ([3]; a.i. g/ha: I.1 20.8, B.192 62.5, 20 days after treatment) was 30%, the “herbicidal activity against AMBEL found” value ([3]; application rate a.i.: I.1 31.25 g/ha, B.100 (isoxaflutole) 12.5 g/ha, alone or as mixture (composition 1.100)) was 90 and the “herbicidal activity against AMBEL found” value ([3]; application rate a.i.: I.1 31.25 g/ha, B.139 (pyroxasulfone) 12.5 g/ha, alone or as mixture (composition 1.139)) was 65. For the same compound, the “herbicidal activity against AMBEL found” value ([3]; application rate a.i.: I.1 31.25 g/ha, B.84 (paraquat-dichloride) 17.5 g/ha, alone or as mixture (composition 1.84)) was 65, the “herbicidal activity against AMBEL found” value ([3]; application rate a.i.: I.1 62.5 g/ha, B.100 (isoxaflutole) 12.5 g/ha, alone or as mixture (composition 1.100)) was 90 and the “herbicidal activity against AMBEL found” value [3, 8] was 75. For the same compound, the “herbicidal activity against AMBEL found” value ([3]; single active, 15.62 g/ha a.i.) was 0, the “herbicidal activity against AMBEL found” value [3, 9] was 0 and the pest or weed control at 31.25 g/ha ([4]; Alopecurus myosuroides, post-emergence, 480 h, I.1 alone 31.25 g/ha a.i., read-out: herbicidal activity against ALOMY found) was 0%. For the same compound, the pest or weed control at 31.25 g/ha ([4]; Alopecurus myosuroides, post-emergence, 480 h, I.1 31.25 g/ha a.i., read-out: herbicidal activity against ALOMY found) was 0%, the pest or weed control at 62.5 g/ha ([4]; Alopecurus myosuroides, post-emergence, 480 h, I.1 62.5 g/ha a.i., read-out: herbicidal activity against ALOMY found) was 0% and the pest or weed control at 125 g/ha ([4]; Alopecurus myosuroides, post-emergence, 480 h, I.1 125 g/ha a.i., read-out: herbicidal activity against ALOMY found) was 25%. It also gave a pest or weed control at 15.62 g/ha ([4]; Alopecurus myosuroides, post-emergence, 480 h, single active, 15.62 g/ha a.i., read-out: herbicidal activity against ALOMY found) of 0%, a pest or weed control at 31.25 g/ha ([4]; Alopecurus myosuroides, post-emergence, 480 h, single active, 31.25 g/ha a.i., read-out: herbicidal activity against ALOMY found) of 0% and a pest or weed control at 62.5 g/ha ([4]; Alopecurus myosuroides, post-emergence, 480 h, single active, 62.5 g/ha a.i., read-out: herbicidal activity against ALOMY found) of 0%. The pest or weed control at 125 g/ha ([4]; Alopecurus myosuroides, post-emergence, 480 h, single active, 125 g/ha a.i., read-out: herbicidal activity against ALOMY found) was 25%, the “herbicidal activity against ALOMY found” value ([4]; I.1 31.25 g/ha, B.95 1 g/ha a.i.) was 0 and the “herbicidal activity against ALOMY found” value ([4]; I.1 62.5 g/ha, B.88 1 g/ha a.i.) was 0. The “herbicidal activity against ALOMY found” value ([4]; I.1 62.5 g/ha, B.88 2 g/ha a.i.) was 0, the “herbicidal activity against ALOMY found” value ([4]; I.1 62.5 g/ha, B.89 12.5 g/ha a.i.) was 0 and the “herbicidal activity against ALOMY found” value ([4]; I.1 62.5 g/ha, B.95 1 g/ha a.i.) was 0. For the same compound, the “herbicidal activity against ALOMY found” value ([4]; a.i. g/ha: I.1 6.9, B.67 62.5, 20 days after treatment) was 0%, the “herbicidal activity against ALOMY found” value ([4]; a.i. g/ha: I.1 20.8, B.67 62.5, 20 days after treatment) was 0% and the “herbicidal activity against ALOMY found” value [4, 7] was 0%. For the same compound, the “herbicidal activity against ALOMY found” value [4, 6] was 45, the “herbicidal activity against ALOMY found” value [4, 8] was 0 and the “herbicidal activity against ALOMY found” value ([4]; applied alone at 125 g/ha a.i.) was 20 and 25. For the same compound, the “herbicidal activity against ALOMY found” value ([4]; g/ha a.i.: I.1 31.25, B.52 2.5, mixture 31.25+2.5) was 25, the “herbicidal activity against ALOMY found” value ([4]; g/ha a.i.: I.1 62.5, B.20 4, mixture 62.5+4) was 25 and the “herbicidal activity against ALOMY found” value ([4]; g/ha a.i.: I.1 62.5, B.52 2.5, mixture 62.5+2.5) was 25. The “herbicidal activity against ALOMY found” value ([4]; g/ha a.i.: I.1 125, B.20 2, mixture 125+2) was 30, the “herbicidal activity against ALOMY found” value ([4]; g/ha a.i.: I.1 125, B.20 4, mixture 125+4) was 30 and the “herbicidal activity against ALOMY found” value ([4]; g/ha a.i.: I.1 125, B.24 1, mixture 125+1) was 30. For the same compound, the “herbicidal activity against ALOMY found” value ([4]; g/ha a.i.: I.1 125, B.24 2, mixture 125+2) was 30, the “herbicidal activity against ALOMY found” value ([4]; g/ha a.i.: I.1 125, B.52 2.5, mixture 125+2.5) was 30 and the “herbicidal activity against ALOMY found” value ([4]; g/ha a.i.: I.1 125, B.63 0.5, mixture 125+0.5) was 30. The pest or weed control at 62.5 g/ha ([5]; 62.5 g/ha a.i.) was 90%, the pest or weed control at 31.25 g/ha ([5]; I.1 31.25 g/ha a.i.) was 50% and the pest or weed control at 62.5 g/ha ([5]; I.1 62.5 g/ha a.i.) was 55%. The pest or weed control at 15.625 g/ha [5, 9] was 0%.
